Legend:
[1] = biological target: KDR (phospho-KDR, VEGF165-stimulated HUVEC cells) (Homo sapiens (Human), UniProt P35968); experiment: KDR autophosphorylation ELISA in HUVEC cells (Example G); format: cell-based; conditions: cellular activity; KDR autophosphorylation ELISA in HUVEC cells
Method in brief: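 Read-out is phospho-KDR measured by ELISA in lysates of VEGF165-stimulated (100 ng/mL, 5 min) HUVEC that were serum-starved 24 h and then pre-exposed 1 h to compound across 8 doses in 0.3% DMSO. Unstimulated lysates defined 0% and stimulated vehicle lysates 100% activity; IC50 values come from 4-parameter logistic regression.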

[2] = biological target: Met (phospho-Met, HGF-stimulated PC-3 prostate cancer cells) (Homo sapiens (Human), UniProt P08581); experiment: Met autophosphorylation ELISA in PC-3 cells (Example F); format: cell-based; conditions: cellular activity; Met autophosphorylation ELISA in PC-3 cells; read-out: c-Met IC50
Method in brief: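 IC50 values derive from a 4-parameter logistic fit of phospho-Met (panTyr) sandwich ELISA signals in PC-3 lysates, scaled between DMSO and reference-inhibitor wells. Cells, starved 3 h in serum-free medium, had 1 h compound exposure (8 doses, 0.3% DMSO) before 10 min stimulation with 100 ng/mL HGF.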

Met (phospho-Met, HGF-stimulated PC-3 prostate cancer cells), sequence (P08581 25-1390): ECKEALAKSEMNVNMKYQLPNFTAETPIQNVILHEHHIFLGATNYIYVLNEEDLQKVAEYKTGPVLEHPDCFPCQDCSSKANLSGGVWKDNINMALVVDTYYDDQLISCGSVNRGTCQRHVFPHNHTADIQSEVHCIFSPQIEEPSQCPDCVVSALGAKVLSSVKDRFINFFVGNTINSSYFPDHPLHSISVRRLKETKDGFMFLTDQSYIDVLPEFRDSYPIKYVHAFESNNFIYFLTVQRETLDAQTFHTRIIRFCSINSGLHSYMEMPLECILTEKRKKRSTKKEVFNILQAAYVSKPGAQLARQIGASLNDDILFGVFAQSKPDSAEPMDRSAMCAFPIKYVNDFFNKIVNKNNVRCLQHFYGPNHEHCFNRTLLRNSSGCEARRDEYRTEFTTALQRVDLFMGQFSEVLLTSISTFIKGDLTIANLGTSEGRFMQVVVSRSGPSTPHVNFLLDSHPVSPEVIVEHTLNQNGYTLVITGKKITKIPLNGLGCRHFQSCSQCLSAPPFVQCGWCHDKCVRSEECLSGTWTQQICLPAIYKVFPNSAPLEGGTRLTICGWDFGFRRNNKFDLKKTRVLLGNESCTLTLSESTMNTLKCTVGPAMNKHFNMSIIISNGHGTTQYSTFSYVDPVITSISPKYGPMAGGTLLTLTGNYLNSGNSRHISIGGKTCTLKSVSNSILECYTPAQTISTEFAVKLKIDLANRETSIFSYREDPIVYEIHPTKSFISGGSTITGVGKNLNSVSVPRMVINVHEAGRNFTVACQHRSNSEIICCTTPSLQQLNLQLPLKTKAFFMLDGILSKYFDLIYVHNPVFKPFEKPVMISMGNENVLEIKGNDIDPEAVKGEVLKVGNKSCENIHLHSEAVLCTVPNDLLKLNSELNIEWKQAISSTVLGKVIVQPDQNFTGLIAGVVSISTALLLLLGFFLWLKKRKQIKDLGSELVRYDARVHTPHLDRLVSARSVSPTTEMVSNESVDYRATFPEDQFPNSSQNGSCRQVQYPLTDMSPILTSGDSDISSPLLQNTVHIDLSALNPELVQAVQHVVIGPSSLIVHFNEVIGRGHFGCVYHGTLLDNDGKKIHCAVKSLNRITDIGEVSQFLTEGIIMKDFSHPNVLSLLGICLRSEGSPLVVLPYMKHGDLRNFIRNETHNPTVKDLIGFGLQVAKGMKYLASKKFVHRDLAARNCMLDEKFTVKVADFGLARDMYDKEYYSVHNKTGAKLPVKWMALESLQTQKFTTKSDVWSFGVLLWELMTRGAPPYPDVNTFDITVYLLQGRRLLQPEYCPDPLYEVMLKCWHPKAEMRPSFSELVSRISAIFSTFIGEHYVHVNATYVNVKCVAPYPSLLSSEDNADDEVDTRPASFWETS
KDR (phospho-KDR, VEGF165-stimulated HUVEC cells), sequence (P35968 20-1356): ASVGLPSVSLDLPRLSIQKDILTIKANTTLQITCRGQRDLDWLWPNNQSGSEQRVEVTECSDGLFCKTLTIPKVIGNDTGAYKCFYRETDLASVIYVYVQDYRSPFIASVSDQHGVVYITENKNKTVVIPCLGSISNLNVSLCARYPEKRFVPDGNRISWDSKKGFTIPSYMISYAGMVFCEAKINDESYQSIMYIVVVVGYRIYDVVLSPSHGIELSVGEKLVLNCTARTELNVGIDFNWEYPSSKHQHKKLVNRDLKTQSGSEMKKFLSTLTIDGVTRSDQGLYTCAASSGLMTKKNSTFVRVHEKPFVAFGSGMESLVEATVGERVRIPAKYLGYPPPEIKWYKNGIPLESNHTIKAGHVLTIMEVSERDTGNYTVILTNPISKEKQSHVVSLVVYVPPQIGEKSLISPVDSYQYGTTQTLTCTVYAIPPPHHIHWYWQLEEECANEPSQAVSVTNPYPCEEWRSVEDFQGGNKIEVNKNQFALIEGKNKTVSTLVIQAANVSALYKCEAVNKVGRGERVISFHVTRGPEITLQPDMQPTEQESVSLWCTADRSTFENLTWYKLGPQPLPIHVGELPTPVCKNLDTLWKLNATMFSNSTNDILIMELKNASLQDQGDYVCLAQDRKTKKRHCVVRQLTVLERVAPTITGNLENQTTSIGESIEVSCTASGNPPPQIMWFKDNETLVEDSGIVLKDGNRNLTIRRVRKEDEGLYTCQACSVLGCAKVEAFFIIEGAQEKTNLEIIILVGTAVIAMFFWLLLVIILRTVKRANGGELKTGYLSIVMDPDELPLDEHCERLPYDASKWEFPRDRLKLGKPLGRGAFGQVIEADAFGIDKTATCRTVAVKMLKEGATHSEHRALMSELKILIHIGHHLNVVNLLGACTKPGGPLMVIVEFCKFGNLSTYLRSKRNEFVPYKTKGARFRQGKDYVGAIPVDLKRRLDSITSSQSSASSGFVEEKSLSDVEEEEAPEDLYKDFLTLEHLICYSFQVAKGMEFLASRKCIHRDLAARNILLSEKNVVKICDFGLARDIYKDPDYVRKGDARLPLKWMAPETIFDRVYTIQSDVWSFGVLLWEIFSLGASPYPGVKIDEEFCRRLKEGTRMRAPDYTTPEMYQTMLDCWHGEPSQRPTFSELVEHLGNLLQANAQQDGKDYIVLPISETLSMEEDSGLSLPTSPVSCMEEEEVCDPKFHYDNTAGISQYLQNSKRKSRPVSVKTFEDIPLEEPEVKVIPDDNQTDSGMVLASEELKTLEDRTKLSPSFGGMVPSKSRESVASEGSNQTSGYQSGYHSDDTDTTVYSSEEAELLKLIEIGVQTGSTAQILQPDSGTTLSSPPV

Question: For COc1cc2nccc(Oc3c(F)cc(NC(=O)c4cn(C)c(C)c(-c5ccc(F)cc5)c4=O)cc3F)c2nc1OC [Compound 392, N-[4-[(6,7-dimethoxy-1,5-naphthyridin-4-yl)oxy]-3,5-difluorophenyl]-5-(4-fluorophenyl)-1,6-dimethyl-4-oxopyridine-3-carboxamide], which IC50 [1] is on record?
Answer: > 300 nM

Question: What about the IC50 [2] of the same compound?
Answer: < 100 nM

Question: COc1cc2nccc(Oc3ccc(NC(=O)c4ncc(C)n(-c5ccc(F)cc5C)c4=O)cc3F)c2nc1OC [Compound 393, N-[4-[(6,7-dimethoxy-1,5-naphthyridin-4-yl)oxy]-3-fluorophenyl]-4-(4-fluoro-2-methylphenyl)-5-methyl-3-oxopyrazine-2-carboxamide] was tested. Which IC50 [1] did it give?
Answer: < 100 nM

Question: What about the IC50 [2] of the same compound?
Answer: < 100 nM

Question: How did the IC50 [1] turn out when COc1cc2nccc(Oc3ccc(NC(=O)c4c(C)ccn(-c5ccc(F)cc5)c4=O)cc3)c2nc1OC [Compound 299, N-[4-[(6,7-Dimethoxy-1,5-naphthyridin-4-yl)oxy]phenyl]-1-(4-fluorophenyl)-4-methyl-2-oxopyridine-3-carboxamide] was run?
Answer: < 100 nM

Question: And the IC50 [2]?
Answer: < 100 nM

Question: Which IC50 [1] does the source give for C=C(C)c1cc(C(=O)Nc2ccc(Oc3ccnc4cc(OC)c(OC)nc34)c(F)c2)c(=O)n(-c2ccc(F)cc2)c1C [Compound 367, N-[4-[(6,7-dimethoxy-1,5-naphthyridin-4-yl)oxy]-3-fluorophenyl]-1-(4-fluorophenyl)-6-methyl-2-oxo-5-prop-1-en-2-ylpyridine-3-carboxamide] here?
Answer: 100 to 300 nM

Question: What about the IC50 [2] of the same compound?
Answer: < 100 nM

Question: How did the IC50 [1] turn out when COc1cc2nccc(Oc3ccc(NC(=O)c4cc(C)c(C)n(-c5ccc(F)cc5)c4=O)cc3F)c2nc1OC [Compound 370, N-[4-[(6,7-dimethoxy-1,5-naphthyridin-4-yl)oxy]-3-fluorophenyl]-1-(4-fluorophenyl)-5,6-dimethyl-2-oxopyridine-3-carboxamide] was run?
Answer: < 100 nM

Question: What about the IC50 [2] of the same compound?
Answer: < 100 nM

Question: With COc1ccc2nccc(Oc3ccc(NC(=O)c4ccc(C)n(-c5ccc(F)cc5)c4=O)cc3)c2n1 [Compound 343, 1-(4-fluorophenyl)-N-[4-[(6-methoxy-1,5-naphthyridin-4-yl)oxy]phenyl]-6-methyl-2-oxopyridine-3-carboxamide] as the compound, how does the IC50 [1] read?
Answer: < 100 nM

Question: What about the IC50 [2] of the same compound?
Answer: < 100 nM

Question: Which IC50 [1] does the source give for Cc1nc(C)n(-c2ccc(F)cc2)c(=O)c1C(=O)Nc1ccc(Oc2ccnc3cc(OCc4ccccc4)cnc23)c(F)c1 [Compound 278, 1-(4-Fluorophenyl)-N-[3-fluoro-4-[(7-phenylmethoxy-1,5-naphthyridin-4-yl)oxy]phenyl]-2,4-dimethyl-6-oxopyrimidine-5-carboxamide] here?
Answer: < 100 nM

Question: And the IC50 [2]?
Answer: < 100 nM

Question: COCc1c(-c2ccc(F)cc2)c(=O)c(C(=O)Nc2ccc(Oc3ccnc4cc(OC)c(OC)nc34)c(F)c2)cn1C [Compound 269, N-[4-[(6,7-Dimethoxy-1,5-naphthyridin-4-yl)oxy]-3-fluorophenyl]-5-(4-fluorophenyl)-6-(methoxymethyl)-1-methyl-4-oxopyridine-3-carboxamide] was tested. Which IC50 [1] did it give?
Answer: > 300 nM

Question: And the IC50 [2]?
Answer: < 100 nM

Question: COc1cnc2c(Oc3ccc(NC(=O)c4c(C)cc(C)n(-c5ccc(F)cc5)c4=O)cc3)ccnc2c1 [Compound 289, 1-(4-Fluorophenyl)-N-[4-[(7-methoxy-1,5-naphthyridin-4-yl)oxy]phenyl]-4,6-dimethyl-2-oxopyridine-3-carboxamide] was tested. Which IC50 [1] did it give?
Answer: < 100 nM

Question: What about the IC50 [2] of the same compound?
Answer: < 100 nM

Question: COc1ccc2nccc(Oc3ccc(NC(=O)c4ncc(C)n(-c5ccc(F)cc5)c4=O)cc3)c2n1 [Compound 378, 4-(4-fluorophenyl)-N-[4-[(6-methoxy-1,5-naphthyridin-4-yl)oxy]phenyl]-5-methyl-3-oxopyrazine-2-carboxamide] was tested. Which IC50 [1] did it give?
Answer: > 300 nM

Question: What about the IC50 [2] of the same compound?
Answer: < 100 nM

Question: For COc1cc2nccc(Oc3ccc(NC(=O)c4c(C)ccn(-c5ccc(F)cc5)c4=O)cc3F)c2nc1OC [Compound 286, N-[4-[(6,7-Dimethoxy-1,5-naphthyridin-4-yl)oxy]-3-fluorophenyl]-1-(4-fluorophenyl)-4-methyl-2-oxopyridine-3-carboxamide], which IC50 [1] is on record?
Answer: < 100 nM

Question: What about the IC50 [2] of the same compound?
Answer: < 100 nM

Question: For COc1ccc2nccc(Oc3ccc(NC(=O)c4c(C)nc(C)c(-c5ccc(F)cc5)c4O)cc3)c2n1 [Compound 340, 5-(4-fluorophenyl)-4-hydroxy-N-[4-[(6-methoxy-1,5-naphthyridin-4-yl)oxy]phenyl]-2,6-dimethylpyridine-3-carboxamide], which IC50 [1] is on record?
Answer: < 100 nM

Question: And the IC50 [2]?
Answer: < 100 nM

Question: How did the IC50 [1] turn out when COc1ccc2nccc(Oc3ccc(NC(=O)c4ncc(C)n(-c5ccc(F)cc5)c4=O)cc3F)c2n1 [Compound 264, N-[3-Fluoro-4-[(6-methoxy-1,5-naphthyridin-4-yl)oxy]phenyl]-4-(4-fluorophenyl)-5-methyl-3-oxopyrazine-2-carboxamide] was run?
Answer: > 300 nM

Question: What about the IC50 [2] of the same compound?
Answer: < 100 nM

Question: How did the IC50 [1] turn out when CCn1cc(C(=O)Nc2ccc(Oc3ccnc4cc(OC)c(OC)nc34)c(F)c2)c(=O)c(-c2ccc(F)cc2)c1CO [Compound 271, N-[4-[(6,7-Dimethoxy-1,5-naphthyridin-4-yl)oxy]-3-fluorophenyl]-1-ethyl-5-(4-fluorophenyl)-6-(hydroxymethyl)-4-oxopyridine-3-carboxamide] was run?
Answer: 100 to 300 nM

Question: And the IC50 [2]?
Answer: < 100 nM

Question: What does the source list for COc1cc2nccc(Oc3ccc(NC(=O)c4cn(C)c(CO)c(-c5ccc(F)cc5C)c4=O)cc3F)c2nc1OC [Compound 282, N-[4-[(6,7-Dimethoxy-1,5-naphthyridin-4-yl)oxy]-3-fluorophenyl]-5-(4-fluoro-2-methylphenyl)-6-(hydroxymethyl)-1-methyl-4-oxopyridine-3-carboxamide]?
Answer: IC50 [1]: < 100 nM; IC50 [2]: < 100 nM

Question: Which IC50 [1] does the source give for Cc1nc(C)c(-c2ccc(F)cc2)c(O)c1C(=O)Nc1ccc(Oc2ccnc3ccc(OCCN4CCOCC4)nc23)c(F)c1 [Compound 355, N-[3-fluoro-4-[[6-(2-morpholin-4-ylethoxy)-1,5-naphthyridin-4-yl)oxy]phenyl]-5-(4-fluorophenyl)-4-hydroxy-2,6-dimethylpyridine-3-carboxamide] here?
Answer: < 100 nM

Question: And the IC50 [2]?
Answer: < 100 nM

Question: What does the source list for COc1cc2nccc(Oc3ccc(NC(=O)c4nccn(-c5ccc(F)cc5)c4=O)cc3F)c2nc1OC [Compound 379, N-[4-[(6,7-dimethoxy-1,5-naphthyridin-4-yl)oxy]-3-fluorophenyl]-4-(4-fluorophenyl)-3-oxopyrazine-2-carboxamide]?
Answer: IC50 [1]: < 100 nM; IC50 [2]: < 100 nM

Question: What does the source list for COc1ccc2nccc(Oc3ccc(NC(=O)c4nccn(-c5ccc(F)cc5)c4=O)cc3F)c2n1 [Compound 380, N-[3-fluoro-4-[(6-methoxy-1,5-naphthyridin-4-yl)oxy]phenyl]-4-(4-fluorophenyl)-3-oxopyrazine-2-carboxamide]?
Answer: IC50 [1]: > 300 nM; IC50 [2]: < 100 nM

Question: How did the IC50 [1] turn out when COc1cc2nccc(Oc3ccc(NC(=O)c4ccnn(-c5ccc(F)cc5)c4=O)cc3F)c2nc1OC [Compound 386, N-[4-[(6,7-dimethoxy-1,5-naphthyridin-4-yl)oxy]-3-fluorophenyl]-2-(4-fluorophenyl)-3-oxopyridazine-4-carboxamide] was run?
Answer: < 100 nM

Question: And the IC50 [2]?
Answer: < 100 nM

Question: How did the IC50 [1] turn out when CCn1cc(C(=O)Nc2ccc(Oc3ccnc4cc(OC)c(OC)nc34)cc2)c(=O)c(-c2ccc(F)cc2)c1CO [Compound 272, N-[4-[(6,7-Dimethoxy-1,5-naphthyridin-4-yl)oxy]phenyl]-1-ethyl-5-(4-fluorophenyl)-6-(hydroxymethyl)-4-oxopyridine-3-carboxamide] was run?
Answer: > 300 nM

Question: What about the IC50 [2] of the same compound?
Answer: < 100 nM

— patent US12371428B2 (Exelixis, Inc., priority 2019, dated 2025)
